The record followed here is the supplement of paper PMC11208160.
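Note: IS621 recombinase and bridge RNA in Escherichia coli cells.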

This data set can be described thus: recombinant barcode read abundance after kanamycin selection (control-corrected) (log10(CPM+1)); higher = more efficient recombination; sequences stand for … in AGTGCAGAGAAAATCGGCCAGTTTTCTCTGCCTGCAGTCCGCATGCCGT…AGATTTATGCAGCGGACTGCCTTTCTCCCAAAGTGATAAACCGGACAGTATCATGGACCGGTTTTCCCGGTAATCCGTATTTGCAAGGTTGGTTTCACT; site = the 11-nt target. The method in brief: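 Targets and IS621 bridge RNA target-binding loops were paired in oligos, each with a promoter, a barcode and the J23119-driven first 104 bridge RNA bases. A vector carrying the remaining 73 bp and a T7-inducible recombinase received these by Gibson cloning, and the pool was co-electroporated into E. coli with a donor plasmid. Duplicate plates contained chloramphenicol/ampicillin LB agar (control) or chloramphenicol/ampicillin/kanamycin with 0.1 mM IPTG. Recombination efficiency comes from averaged, control-corrected counts per million of recombinant-junction barcodes, reported as log10(CPM+1).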
“GGTCGTGCTTGGGTTCTAACCTGTTGCCT (site GGTCGTGCTAG)”: the “recombinant barcode read abundance (log10)” value was 1.14. With “GGTCTAACTTGGGTTCTAACCTGTTGCCT (site GGTCAAACTAG)”, the “recombinant barcode read abundance (log10)” value was 0.0448. On to “GGTCTAACTTGGGTTCTAACCTGTTGCCT (site GGTCCAACTAG)”, for which the “recombinant barcode read abundance (log10)” value is 0.631.

For “GGTCTAACTTGGGTTCTAACCTGTTGCCT (site GGTCGAACTAG)”, the “recombinant barcode read abundance (log10)” value amounted to 0.128. For the sequence “GGTCTAACTTGGGTTCTAACCTGTTGCCT (site GGTCTAACTAG)”, the “recombinant barcode read abundance (log10)” value worked out at 0.649. Take “GGTCTGCCTTGGGTTCTAACCTGTTGCCT (site AGTCTGCCTAG)”: the “recombinant barcode read abundance (log10)” value worked out at 0.171. In the case of “GGTCTGCCTTGGGTTCTAACCTGTTGCCT (site CGTCTGCCTAG)”, the “recombinant barcode read abundance (log10)” value came to 0.252. Consider “GGTCTGCCTTGGGTTCTAACCTGTTGCCT (site GGTCTGCCTAG)”, for which the “recombinant barcode read abundance (log10)” value was 0.375. Turning to “GGTCTGCCTTGGGTTCTAACCTGTTGCCT (site TGTCTGCCTAG)”, the “recombinant barcode read abundance (log10)” value was 0.397. In the case of “GGTGAGACTTGGGTTCTAACCTGTTGCCA (site AGTGGGACTTG)”, the “recombinant barcode read abundance (log10)” value is 0.235. With “GGTGAGACTTGGGTTCTAACCTGTTGCCA (site GGTGAGACTTG)”, the “recombinant barcode read abundance (log10)” value came to 2.14. Regarding “GGTGAGGCTTGGGTTCTAACCTGTTGCAT (site GGTGAGGCTAT)”, the “recombinant barcode read abundance (log10)” value came to 2.31. In the case of “GGTGAGGCTTGGGTTCTAACCTGTTGCAT (site TAACCTACTTA)” it was 0.214; in that of “GGTGCATCTTGGGTTCTAACCTGTTGCTT (site ATATGTCCTTT)”, 0.0325. For “GGTGCATCTTGGGTTCTAACCTGTTGCTT (site GGTGCATCTAA)” the value was 0.0847; for “GGTGCGTCTTGGGTTCTAACCTGTTGCCT (site AGTGCGTCTAG)”, 0.246; for “GGTGCGTCTTGGGTTCTAACCTGTTGCCT (site CGTGCGTCTAG)”, 0.132.

For the sequence “GGTGCGTCTTGGGTTCTAACCTGTTGCCT (site GGTGCGTCTAG)”, the “recombinant barcode read abundance (log10)” value was 1.57.

Regarding “GGTGCGTCTTGGGTTCTAACCTGTTGCCT (site TGTGCGTCTAG)”, the “recombinant barcode read abundance (log10)” value amounted to 0.119. For “GGTGCTCCTTGGGTTCTAACCTGTTGCAC (site GGTGCTCCTAT)”, the “recombinant barcode read abundance (log10)” value came to 0.085. Take “GGTGCTCCTTGGGTTCTAACCTGTTGCAC (site GGTGCTCCTCT)”: the “recombinant barcode read abundance (log10)” value stood at 0.04. Consider “GGTGCTCCTTGGGTTCTAACCTGTTGCAC (site GGTGCTCCTGT)”, for which the “recombinant barcode read abundance (log10)” value was found to be 0.684. As for “GGTGCTCCTTGGGTTCTAACCTGTTGCAC (site GGTGCTCCTTT)”, the “recombinant barcode read abundance (log10)” value stood at 0.216. With “GGTGGCCCTTGGGTTCTAACCTGTTGCCT (site GATGGCCCTAG)”, the “recombinant barcode read abundance (log10)” value worked out at 0.108. In the case of “GGTGGCCCTTGGGTTCTAACCTGTTGCCT (site GCTGGCCCTAG)”, the “recombinant barcode read abundance (log10)” value came to 0.22. In the case of “GGTGGCCCTTGGGTTCTAACCTGTTGCCT (site GGTGGCCCTAG)”, the “recombinant barcode read abundance (log10)” value was found to be 1.08. On to “GGTGGCCCTTGGGTTCTAACCTGTTGCCT (site GTTGGCCCTAG)”, for which the “recombinant barcode read abundance (log10)” value is 0.296.

Take “GGTGGGGCTTGGGTTCTAACCTGTTGCTG (site GGTGGGGCTCA)”: the “recombinant barcode read abundance (log10)” value was 2.24. As for “GGTGGGGCTTGGGTTCTAACCTGTTGCTG (site GGTTGAGCTCA)”, the “recombinant barcode read abundance (log10)” value stood at 0.536. Take “GGTGGTCCTTGGGTTCTAACCTGTTGCCT (site GGTGGTCCTAG)”: the “recombinant barcode read abundance (log10)” value came to 1.36. As to “GGTGGTCCTTGGGTTCTAACCTGTTGCCT (site GGTTGTCCTAG)”, the “recombinant barcode read abundance (log10)” value is 0.178. For “GGTTACCCTTGGGTTCTAACCTGTTGCGG (site GGTAACCCTCC)”, the “recombinant barcode read abundance (log10)” value came to 0.716.

As for “GGTTACCCTTGGGTTCTAACCTGTTGCGG (site GGTCACCCTCC)”, the “recombinant barcode read abundance (log10)” value was found to be 1.62. In the case of “GGTTACCCTTGGGTTCTAACCTGTTGCGG (site GGTGACCCTCC)”, the “recombinant barcode read abundance (log10)” value came to 0.115.

“GGTTACCCTTGGGTTCTAACCTGTTGCGG (site GGTTACCCTCC)”: the “recombinant barcode read abundance (log10)” value is 2.08.

For “GGTTAGTCTTGGGTTCTAACCTGTTGCCG (site ACGGCTACTAA)”, the “recombinant barcode read abundance (log10)” value came out at 0.147. On to “GGTTAGTCTTGGGTTCTAACCTGTTGCCG (site GGTTAGTCTCG)”, for which the “recombinant barcode read abundance (log10)” value stood at 0.363.

On to “GGTTGAGCTTGGGTTCTAACCTGTTGCTG (site GGTGGGGCTCA)”, for which the “recombinant barcode read abundance (log10)” value was 0.0323. For “GGTTGAGCTTGGGTTCTAACCTGTTGCTG (site GGTTGAGCTCA)” the value was 0.642; for “GGTTGGCCTTGGGTTCTAACCTGTTGCGG (site GGTTGACCTCC)”, 0.257.

In the case of “GGTTGGCCTTGGGTTCTAACCTGTTGCGG (site GGTTGCCCTCC)”, the “recombinant barcode read abundance (log10)” value amounted to 0.0622. Consider “GGTTGGCCTTGGGTTCTAACCTGTTGCGG (site GGTTGGCCTCC)”, for which the “recombinant barcode read abundance (log10)” value amounted to 0.624. As to “GGTTGGCCTTGGGTTCTAACCTGTTGCGG (site GGTTGTCCTCC)”, the “recombinant barcode read abundance (log10)” value came out at 0.15.

In the case of “GGTTGGGCTTGGGTTCTAACCTGTTGCAG (site GGCTGGGCTCG)”, the “recombinant barcode read abundance (log10)” value came out at 0.0851. In the case of “GGTTGGGCTTGGGTTCTAACCTGTTGCAG (site GGTTGGGCTCT)” it was 1.46. As to “GTAACCTCTTGGGTTCTAACCTGTTGCCT (site GTAACCTCTAG)”, the “recombinant barcode read abundance (log10)” value worked out at 1.92. Turning to “GTAACCTCTTGGGTTCTAACCTGTTGCCT (site GTAACCTCTCG)”, the “recombinant barcode read abundance (log10)” value came to 1.15. “GTAACCTCTTGGGTTCTAACCTGTTGCCT (site GTAACCTCTGG)”: the “recombinant barcode read abundance (log10)” value amounted to 0.0952. Regarding “GTAACCTCTTGGGTTCTAACCTGTTGCCT (site GTAACCTCTTG)”, the “recombinant barcode read abundance (log10)” value was determined as 0.0654. Consider “GTAAGAACTTGGGTTCTAACCTGTTGCAG (site GTAAGAACTCT)”, for which the “recombinant barcode read abundance (log10)” value is 1.78. For “GTAAGAACTTGGGTTCTAACCTGTTGCAG (site GTAAGTCCTCT)” the value was 0.544; for “GTAAGGACTTGGGTTCTAACCTGTTGCGG (site CAGTCAGCTAG)”, 0.115.

In the case of “GTAAGGACTTGGGTTCTAACCTGTTGCGG (site GTAAGGACTCC)”, the “recombinant barcode read abundance (log10)” value worked out at 2.25. In the case of “GTAAGTTCTTGGGTTCTAACCTGTTGCCT (site GAAAGTTCTAG)” it was 0.049; in that of “GTAAGTTCTTGGGTTCTAACCTGTTGCCT (site GCAAGTTCTAG)”, 0.258; in that of “GTAAGTTCTTGGGTTCTAACCTGTTGCCT (site GGAAGTTCTAG)”, 0.0929. For “GTAAGTTCTTGGGTTCTAACCTGTTGCCT (site GTAAGTTCTAG)”, the “recombinant barcode read abundance (log10)” value was determined as 1.11. For the sequence “GTAATAGCTTGGGTTCTAACCTGTTGCAT (site ATAATAGCTAT)”, the “recombinant barcode read abundance (log10)” value stood at 0.695.

On to “GTAATAGCTTGGGTTCTAACCTGTTGCAT (site GTAATAGCTAT)”, for which the “recombinant barcode read abundance (log10)” value amounted to 2. In the case of “GTAATCCCTTGGGTTCTAACCTGTTGCCG (site GTAATCCCTCG)” it was 1.76; in that of “GTAATCCCTTGGGTTCTAACCTGTTGCCG (site GTAATCCCTTG)”, 0.572. For “GTAATTGCTTGGGTTCTAACCTGTTGCCT (site GTAAATGCTAG)” the value was 0.184; for “GTAATTGCTTGGGTTCTAACCTGTTGCCT (site GTAACTGCTAG)”, 0.519; for “GTAATTGCTTGGGTTCTAACCTGTTGCCT (site GTAAGTGCTAG)”, 0.0962.

On to “GTAATTGCTTGGGTTCTAACCTGTTGCCT (site GTAATTGCTAG)”, for which the “recombinant barcode read abundance (log10)” value came out at 0.918. For “GTACAATCTTGGGTTCTAACCTGTTGCAG (site CATAGTCCTTG)” the value was 0; for “GTACAATCTTGGGTTCTAACCTGTTGCAG (site GTACAATCTCT)”, 0.632; for “GTACGACCTTGGGTTCTAACCTGTTGCAC (site AACAAGACTAG)”, 0.189. In the case of “GTACGACCTTGGGTTCTAACCTGTTGCAC (site GTACGACCTGT)”, the “recombinant barcode read abundance (log10)” value turned out to be 1.91. In the case of “GTACGTACTTGGGTTCTAACCTGTTGCCT (site ATACGTACTAG)” it was 0.0704; in that of “GTACGTACTTGGGTTCTAACCTGTTGCCT (site CTACGTACTAG)”, 0.283.

“GTACGTACTTGGGTTCTAACCTGTTGCCT (site GTACGTACTAG)”: the “recombinant barcode read abundance (log10)” value worked out at 0.586.

“GTACGTACTTGGGTTCTAACCTGTTGCCT (site TTACGTACTAG)”: the “recombinant barcode read abundance (log10)” value was determined as 0.777. As for “GTACGTCCTTGGGTTCTAACCTGTTGCGT (site GTACGTCCTAA)”, the “recombinant barcode read abundance (log10)” value stood at 0.0527. For “GTACGTCCTTGGGTTCTAACCTGTTGCGT (site GTACGTCCTAC)”, the “recombinant barcode read abundance (log10)” value is 2.36. For “GTACGTCCTTGGGTTCTAACCTGTTGCGT (site GTACGTCCTAG)”, the “recombinant barcode read abundance (log10)” value came to 0.0549. Turning to “GTACGTCCTTGGGTTCTAACCTGTTGCGT (site GTACGTCCTAT)”, the “recombinant barcode read abundance (log10)” value turned out to be 0.764.
